For this test, the system named is CA1 neuron region of hippocampal tissue. Description: Crystal violet staining of CA1 neuron region of hippocampal tissue after transient global ischemia. It is filed as in vivo, CD1 mice. To be noted: mice after transient global ischemia; fluoxetine, vitamin C alone or together at trace amount; vs normal and negative control groups. The text has this: Eight-week old adult male CD1 mice with a weight of 33 g to 37 g were induced to be anesthetized by injecting with 2% isoflurane under an air condition, in which nitrous oxide and oxygen were in a 70:30 ratio, and the mice were induced to have transient global ischemia according to the previous disclosure while the mice were maintained in the anesthetized state with 1% isoflurane (Kim, D. H. et. al, 2009. Food Chem. Toxicol. 47, 1473-1479.). The thus-prepared mice with transient global ischemia put into cages (4 mice/cage) were given ad libitum access to water and foods, and bred in an environment of a constant temperature (23±1° C.) and continuous humidity (60±10%) under a 12 hour light/dark cycle.
Specifically, the brains obtained and stored by performing in the same manner as in <Example 6> were cut into 30 μm coronal plane sections, placed on gelatin-coated slides, stained with crystal violet, and dehydrated by adding 70%, 80%, 90%, and 100% alcohol in this order. Upon dehydration, xylene was added thereto, covered with coverslips, and the CA1 neuron region of hippocampal tissue was observed.

The results in this text go back to patent US10772866B2 (UNIVERSITY-INDUSTRY COOPERATION GROUP OF KYUNG HEE …, priority 2013, dated 2020).

For the compound `CNCCC(Oc1ccc(C(F)(F)F)cc1)c1ccccc1` (centres unmarked) [fluoxetine], the “recovery of hippocampal tissue injury (CA1 neuron region, preserved cells, FIGS. 7 and 8)” value is listed as “a recovery similar to that of the negative control group”.
On to `O=C1O[C@H]([C@@H](O)CO)C(O)=C1O` [vitamin C, ascorbic acid], for which the “recovery of hippocampal tissue injury (CA1 neuron region, preserved cells, FIGS. 7 and 8)” value is “a recovery similar to that of the negative control group”.
